Results on 24 compounds are retold here after ChEMBL document CHEMBL5230159, “Targeting Metalloenzymes by Boron-Containing Metal-Binding Pharmacophores” (J Med Chem, 2021).

In data set [1] the target is Carbonic anhydrase 1 (Homo sapiens, UniProt P00915). In words: Binding affinity to human CA1 assessed as inhibition constant.
Data set [2] addresses Carbonic anhydrase 9 (Homo sapiens, UniProt Q16790). In words: Binding affinity to human CA9 assessed as inhibition constant.
Data set [3] addresses Carbonic anhydrase 12 (Homo sapiens, UniProt O43570). In words: Binding affinity to human CA12 assessed as inhibition constant.
Data set [4] addresses T1, 3',5'-cyclic-AMP phosphodiesterase 4B (Homo sapiens, UniProt Q07343). In words: Inhibition of human PDE4 catalytic domain expressed in Escherichia coli.
Data set [5] concerns the target T1, 3',5'-cyclic-AMP phosphodiesterase 4B. Description: Inhibition of human PDE4 catalytic domain expressed in Escherichia coli at 10 uM relative to control.
The nature of data set [6]: Inhibition of Escherichia coli NDM-1.
A short description of data set [7]: Inhibition of Escherichia coli VIM-2.
Data set [8] concerns the target T2, Arginase-1 (Homo sapiens, UniProt P05089).
T2 sequence (P05089 whole entry): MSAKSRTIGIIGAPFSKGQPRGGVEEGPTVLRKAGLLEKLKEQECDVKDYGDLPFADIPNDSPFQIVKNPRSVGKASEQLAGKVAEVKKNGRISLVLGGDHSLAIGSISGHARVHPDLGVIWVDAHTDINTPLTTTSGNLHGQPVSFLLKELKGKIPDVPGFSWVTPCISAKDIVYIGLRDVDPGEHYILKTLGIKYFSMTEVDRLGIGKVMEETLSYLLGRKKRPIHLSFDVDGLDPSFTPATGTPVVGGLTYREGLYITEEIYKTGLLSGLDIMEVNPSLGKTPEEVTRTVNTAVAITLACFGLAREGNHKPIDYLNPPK
Description: Binding affinity to human Arg I.

The target of data set [9] is T3, Autotaxin (Homo sapiens, UniProt Q13822). In words: Inhibition of human recombinant ATX using ABTS as substrate by absorbance based analysis.
Data set [10] has as its target T2, Arginase-1. In words: Inhibition of human Arg I.
In data set [11] the target is T4, Arginase-1 (Rattus norvegicus, UniProt P07824).
T4 sequence (P07824 whole entry): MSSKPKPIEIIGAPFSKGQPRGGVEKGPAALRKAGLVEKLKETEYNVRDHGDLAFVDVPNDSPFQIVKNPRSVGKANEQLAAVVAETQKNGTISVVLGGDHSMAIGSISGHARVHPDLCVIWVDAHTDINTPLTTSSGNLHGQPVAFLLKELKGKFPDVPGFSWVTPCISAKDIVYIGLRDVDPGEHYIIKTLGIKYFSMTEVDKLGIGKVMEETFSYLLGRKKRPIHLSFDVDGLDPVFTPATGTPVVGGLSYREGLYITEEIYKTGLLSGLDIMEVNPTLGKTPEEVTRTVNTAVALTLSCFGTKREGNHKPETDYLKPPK
In words: Binding affinity to rat Arg I.

The target of data set [12] is T4, Arginase-1. In words: Inhibition of rat liver arginase using L-arginine as substrate incubated for 10 mins followed by substrate addition by scintillation counting analysis. The class given is tissue-based.
Data set [13] addresses T5, Arginase-2, mitochondrial (Homo sapiens, UniProt P78540).
T5 sequence (P78540 whole entry): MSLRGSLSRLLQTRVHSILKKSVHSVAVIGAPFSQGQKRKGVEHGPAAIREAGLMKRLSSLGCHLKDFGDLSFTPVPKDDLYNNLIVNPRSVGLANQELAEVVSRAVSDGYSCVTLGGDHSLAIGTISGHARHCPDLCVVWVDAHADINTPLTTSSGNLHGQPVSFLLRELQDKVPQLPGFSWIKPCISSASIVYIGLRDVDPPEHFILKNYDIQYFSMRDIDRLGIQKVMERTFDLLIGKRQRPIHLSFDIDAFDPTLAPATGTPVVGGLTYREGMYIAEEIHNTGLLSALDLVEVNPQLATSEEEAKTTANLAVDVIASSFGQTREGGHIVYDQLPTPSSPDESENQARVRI
Description: Binding affinity to human Arg II.

Data set [14] is described as follows: Oral bioavailability in C57BL/6 mouse at 25 to 50 mg/kg by LC-MS/MS analysis. Particulars: in vivo, dose 25-50 mg/kg. The format is ADME, organism-based.
Data set [15] in a line: Clearance in C57BL/6 mouse at 25 to 50 mg/kg, po by LC-MS/MS analysis. Particulars: in vivo, dose 25-50 mg/kg. The format is ADME, organism-based.
The target of data set [16] is T3, Autotaxin. Description: Inhibition of human recombinant ATX.
The nature of data set [17]: Inhibition of beta-lactamase TEM-1 (unknown origin). Further details: species or system Bacteria.
In data set [18] the target is BlaVIM-1 (Escherichia coli, UniProt Q8GDC1). In words: Inhibition of Escherichia coli VIM-1.
Data set [19] is described as follows: Inhibition of Escherichia coli IMP-1.

Molecules are shown by their SMILES.

T1 sequence (Q07343 whole entry, the tested form may be a part): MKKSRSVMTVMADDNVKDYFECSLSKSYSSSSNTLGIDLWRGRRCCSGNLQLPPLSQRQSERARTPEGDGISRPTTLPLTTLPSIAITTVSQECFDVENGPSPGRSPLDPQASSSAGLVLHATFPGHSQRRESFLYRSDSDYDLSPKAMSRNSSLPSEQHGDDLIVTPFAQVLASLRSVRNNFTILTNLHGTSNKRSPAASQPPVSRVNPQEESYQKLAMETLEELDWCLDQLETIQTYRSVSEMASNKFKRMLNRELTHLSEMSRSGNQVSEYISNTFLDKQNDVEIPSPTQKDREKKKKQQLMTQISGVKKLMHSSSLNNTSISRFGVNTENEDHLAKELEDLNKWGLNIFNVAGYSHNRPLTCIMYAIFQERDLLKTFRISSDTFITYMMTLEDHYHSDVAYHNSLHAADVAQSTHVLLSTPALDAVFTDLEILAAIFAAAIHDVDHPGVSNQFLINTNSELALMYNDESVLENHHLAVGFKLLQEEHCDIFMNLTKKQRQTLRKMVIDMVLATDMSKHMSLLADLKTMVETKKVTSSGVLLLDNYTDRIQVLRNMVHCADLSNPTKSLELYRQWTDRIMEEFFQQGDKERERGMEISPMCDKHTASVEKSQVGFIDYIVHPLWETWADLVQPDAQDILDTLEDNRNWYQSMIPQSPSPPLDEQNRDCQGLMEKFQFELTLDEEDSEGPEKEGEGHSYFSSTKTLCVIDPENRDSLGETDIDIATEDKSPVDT
Carbonic anhydrase 12, sequence (O43570 whole entry, the tested form may be a part): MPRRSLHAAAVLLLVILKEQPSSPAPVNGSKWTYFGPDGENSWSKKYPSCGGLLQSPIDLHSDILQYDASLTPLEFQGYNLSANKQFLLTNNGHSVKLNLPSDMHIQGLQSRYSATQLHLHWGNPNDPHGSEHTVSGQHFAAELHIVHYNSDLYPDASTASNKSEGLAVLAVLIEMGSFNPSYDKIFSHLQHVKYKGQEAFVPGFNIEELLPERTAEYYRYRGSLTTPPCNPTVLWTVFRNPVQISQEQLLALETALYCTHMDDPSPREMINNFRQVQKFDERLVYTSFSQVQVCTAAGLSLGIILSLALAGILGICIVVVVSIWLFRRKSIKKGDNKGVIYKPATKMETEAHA
Carbonic anhydrase 1, sequence (P00915 whole entry): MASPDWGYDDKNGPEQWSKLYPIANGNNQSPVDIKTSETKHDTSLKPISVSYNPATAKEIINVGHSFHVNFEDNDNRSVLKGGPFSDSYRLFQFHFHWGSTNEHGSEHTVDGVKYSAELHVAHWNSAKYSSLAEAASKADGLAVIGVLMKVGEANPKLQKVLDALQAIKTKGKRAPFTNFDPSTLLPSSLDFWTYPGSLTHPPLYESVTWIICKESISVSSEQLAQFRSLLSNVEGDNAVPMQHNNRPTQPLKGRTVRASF

A word on the Ki: it is a measure of affinity in units of concentration, obtained from inhibition or displacement. For `COc1ccc(C)cc1NC(=O)Nc1ccc2c(c1)B(O)OC2`, the Ki in data set [1] worked out at 0.098 µM; in data set [2], 0.414 µM; in data set [3], 0.069 µM.

As usually defined, the IC50 is the concentration needed to halve the response being measured. One may read the inhibition as the share of the control response that was lost under treatment. A higher inhibition goes with a strong effect. `O=C(O)c1ccc(Oc2ccc3c(c2)COB3O)nc1` displayed a concentration for half-maximal inhibition (IC50) in [4] above 0.01 µM. Besides, the inhibition in [5] stood at 5%.

`N#Cc1ccc(Oc2ccc3c(c2)COB3O)cc1OCCO`: the IC50 in data set [4] stood at 0.024 µM.

In data set [4], `N#Cc1ccc(Oc2ccc3c(c2)COB3O)nc1` had an IC50 of 0.18 µM.

In the case of `N#Cc1ccc(Oc2ccc3c(c2)COB3O)cc1C#N`, in data set [4], half-maximal inhibition (IC50) required 0.06 µM.

For `OB1OCc2ccc(NC(=S)Nc3ccc(C(F)(F)F)cc3)cc21`, the Ki was determined as 0.093 µM in data set [2] and 0.071 µM in data set [3].

In the case of `O=C(O)c1cccc2c1OB(O)[C@@H](NC(=O)C1CCCCC1)C2`, the concentration for half-maximal inhibition (IC50) in data set [6] was 2.04 µM; in data set [7], 0.051 µM.

`Nc1nccn1CCC[C@H](N)C(=O)O` displayed a Ki in data set [8] of 30000 µM.

Take `CCOC(=O)c1ccc(Oc2ccc3c(c2)COB3O)nc1`: in [4], the 50% inhibitory concentration (IC50) turned out to be 0.047 µM.

Consider `O=C1S/C(=C\c2ccc(OCc3ccccc3B(O)O)cc2)C(=O)N1Cc1ccc(F)cc1`, for which the IC50 in data set [9] was above 0.005 µM.

Take `N[C@@H](CCCCB(O)O)C(=O)O`: in [10], the IC50 stood at 1.45 µM.

One may read the Kd as the free concentration of one partner at which half of the binding sites on the other are occupied at equilibrium, for simple one-to-one binding. A low value points to higher affinity. For `NC(CCCCC(=O)O)C(=O)O` (stereo not drawn), binding in [11] was characterised by a dissociation constant (Kd) of 30000 µM.

`NC(Cc1ccc(B(O)O)cc1)C(=O)O` (stereo not drawn): in [12], inhibition was half-maximal at 6000 µM (IC50).

`OB(O)/C=C/Cc1ccccc1` displayed an inhibition constant (Ki) in data set [13] of 0.089 µM.

By bioavailability is commonly meant the share of a dose that reaches the circulation, judged against a reference dose that is usually intravenous. Low readings indicate poor availability, high ones good availability. What is called CL/F is clearance divided by bioavailability, as obtained after extravascular dosing. As to `C[C@H](N)C(=O)N1C[C@H](CCCB(O)O)[C@](N)(C(=O)O)C1`, in [14], the bioavailability is 91%. This compound yielded an apparent clearance (CL/F) in [15] of 10 mL/min/kg.

On to `O=C1N=C(N2CCN(Cc3ccc(C(=O)O)cc3)CC2)S/C1=C\c1ccc(Cl)c(Cl)c1`, for which, in data set [16], the 50% inhibitory concentration (IC50) was determined as 0.025 µM.

In data set [8], `N[C@@H](CCCC[N+](=O)[O-])C(=O)O` gave an equilibrium dissociation constant (Kd) of 60 µM.

In data set [17], `CC(=O)N[C@H]1Cc2cccc(C(=O)O)c2OB1O` yielded a concentration for half-maximal inhibition (IC50) of 0.013 µM.

As for `NCCN[C@H]1CC[C@H](CC(=O)N[C@H]2Cc3cccc(C(=O)O)c3OB2O)CC1`, the IC50 in data set [6] was determined as 0.01 µM; in [18] it was 0.0079 µM; in data set [7], 0.0005 µM; in [19], 2.5 µM.

Take `N[C@@H](CC/C=C/B(O)O)C(=O)O`: 15 µM corresponded to half-maximal inhibition in data set [12] (IC50).

Turning to `N#Cc1ccc(Oc2ccc3c(c2)COB3O)cc1` [CRISABOROLE], the half-maximal inhibitory concentration (IC50) in [4] came to 0.11 µM.

For the compound `CC(=O)OCCOc1cc(Oc2ccc3c(c2)COB3O)ccc1C#N`, half-maximal inhibition in data set [4] (IC50) required 0.0007 µM.

For the compound `CCOc1nc(-c2cncc(C3COB(O)C3)c2)c(F)cc1OC` (stereo not drawn), in [4], the 50% inhibitory concentration (IC50) turned out to be 0.00012 µM.

Consider `N[C@@H](CCCCC=O)C(=O)O`, for which the affinity in data set [11] corresponds to a Ki of 60 µM.
